Where a name gives a salt, the structure may show the parent alone. Read-outs that look alike come from different tables or passages of the source.
Tests used:
[1] = test system: Albino hairless SKH1-hr mice; conditions: for Skin Thickening: number of mice with observation / Skin Thickening: total number of observations: 40 weeks
Description: Albino hairless SKH1-hr mice (36/sex/group) were treated for 40 weeks with UVR and brimonidine gel or vehicle according to the design in table 11. […] Topical treatments were performed approximately one hour before UVR on Monday, Wednesday and Friday of each week and approximately one hour after UVR Tuesday and Thursday of each week.
*Monday, Wednesday and Friday of each week: exposure to UVR approximately one hour after test item application. Tuesday and Thursday of each week: exposure to UVR approximately one hour before test item application.
The UVR exposure was 600 RBU/week for all test groups in the table.

[2] = test system: SKH1 mice; experiment: UVB-induced epidermal hyperplasia: epidermis thickness (H&E); type: in vivo; conditions: for Decrease of the epidermal thickness: post-treatment schedule (immediately after UVB, then twice 23 h apart)
Description: (§1) SKH1 mice were treated and exposed to UVB irradiation. The back skin of the mice was exposed to 120 mJ/cm^2 UVB using the Biospectra system equipped with UVB sunlamps with a maximum emission peak at 312 nm. Irradiations were performed under isoflurane gaseous anesthesia. Mice were treated with vehicle (PEG400/EtOH/PHY (30/20/50) p/p) or brimonidine tartrate at 0.2% or 2%, by weight, administrated by topical application (100 μl) on a 10 cm^2 area on the upper part of the back using a micropipette. The area is located on the upper part of the back to prevent the animals from liking themselves. Three applications were performed according to the following two treatment schedules:
(§2) (a) pre-treatment: one application 1 hour prior to UVB irradiation, followed by two more applications 23 hours apart;
(§3) (b) post-treatment: one application immediately following the UVB irradiation, followed by two more applications 23 hours apart.
(§4) A compound reference, i.e., an EGFR inhibitor at 4%, by weight, in EtOH/H2O (76/24) was also administrated according to the pre-treatment schedule.
One hour after the third topical treatment and one hour before euthanasia, mice received an intraperitoneal (i.p.) injection of 5-ethynyl-2′-deoxyuridine (EdU) at 100 mg/kg. After mouse euthanasia using cervical dislocation, the back skin was removed and immediately fixed in formol. The formol-fixed skin samples were embedded in paraffin and then submitted to immunohistological studies for epidermal thickness and EdU detection.
For epidermal thickness, two sections of 7 μm per animal were stained in hematoxylin and eosin (H&E) stain. Skin histology and the epidermis thickness were analyzed using image analysis (mScope 3.9, Aurora mScope) on scanned slide pictures (NanoZoomer C9600-12, Hamamatsu Photonics K.K).
Data were analyzed using unpaired t test for validation of the UVB irradiation and one-way ANOVA with Dunnett's multiple comparison test for the analysis of the treatment effect (Prism 6; GraphPad Software Inc., San Diego, Calif., USA). A p value of less than 0.05 was regarded as significant.

[3] = test system: SKH1 mice; experiment: UVB-induced epidermal hyperplasia: EdU detection of proliferating keratinocytes; type: in vivo
Description: as §1, §2, §3, §4
One hour after the third topical treatment and one hour before euthanasia, mice received an intraperitoneal (i.p.) injection of 5-ethynyl-2′-deoxyuridine (EdU) at 100 mg/kg. After mouse euthanasia using cervical dislocation, the back skin was removed and immediately fixed in formol. […]
For EdU detection, two or three sections of 7 μm per animal were submitted to EdU staining. […] Nuclei were also stained with 4′,6-diamidino-2-phenylindole (DAPI) diluted at 5 mg/mL in Vectashield Hard Set Mounting medium for Fluorescence (ref: H-1400 Vector Laboratories). The number of keratinocytes stained with Alexa Fluor® 594 was counted from digital images (NanoZoomer C9600-12, Hamamatsu Photonics K.K) and the epidermis length of each section determined using an in house dedicated tool.
Data were analyzed using unpaired t test for validation of the UVB irradiation and one-way ANOVA with Dunnett's multiple comparison test for the analysis of the treatment effect (Prism 6; GraphPad Software Inc., San Diego, Calif., USA). […]

For `Brc1c(NC2=NCCN2)ccc2nccnc12` [brimonidine tartrate, (5-Bromo-quinoxalin-6-yl)-(4,5-dihydro-1H-imidazol-2-yl)-amine], the “UV-induced skin thickness, statistical effect” value (from here on “UV-induced skin thickness”) ([1]; 0.18% (w/w) topical) was “did not statistically reduce”, the “UV-induced skin thickness” value ([1]; 1% (w/w) topical) was “statistically reduced” and the “UV-induced skin thickness” value ([1]; 2% (w/w) topical) was “statistically reduced”. The “Skin Thickening: number of mice with observation” value (from here on “Skin Thickening: number of mice”) ([1]; female mice (36 tested), 0.18% brimonidine tartrate gel topical, UVR 600 RBU/week) was 32, the “Skin Thickening: number of mice” value ([1]; female mice (36 tested), 1% brimonidine tartrate gel topical, UVR 600 RBU/week) was 25 and the “Skin Thickening: number of mice” value ([1]; female mice (36 tested), 2% brimonidine tartrate gel topical, UVR 600 RBU/week) was 23. For the same molecule, the “Skin Thickening: total number of observations” value (“Skin Thickening: total number” below) ([1]; female mice, 0.18% brimonidine tartrate gel topical, UVR 600 RBU/week) was 521, the “Skin Thickening: total number” value ([1]; female mice, 1% brimonidine tartrate gel topical, UVR 600 RBU/week) was 374 and the “Skin Thickening: total number” value ([1]; female mice, 2% brimonidine tartrate gel topical, UVR 600 RBU/week) was 381. The “Skin Thickening: number of mice” value ([1]; male mice (36 tested), 0.18% brimonidine tartrate gel topical, UVR 600 RBU/week) was 34, the “Skin Thickening: number of mice” value ([1]; male mice (36 tested), 1% brimonidine tartrate gel topical, UVR 600 RBU/week) was 27 and the “Skin Thickening: number of mice” value ([1]; male mice (36 tested), 2% brimonidine tartrate gel topical, UVR 600 RBU/week) was 24. The “Skin Thickening: total number” value ([1]; male mice, 0.18% brimonidine tartrate gel topical, UVR 600 RBU/week) was 514, the “Skin Thickening: total number” value ([1]; male mice, 1% brimonidine tartrate gel topical, UVR 600 RBU/week) was 392 and the “Skin Thickening: total number” value ([1]; male mice, 2% brimonidine tartrate gel topical, UVR 600 RBU/week) was 367. The “UV-induced skin thickening, effect in words” value ([1]; topical 0.18%, 1% and 2%, UVR 600 RBU/week) was “dose-dependent reduction”, the “Decrease of the epidermal thickness” value ([2]; 0.2% (w/w) topical) was −16% and the “Inhibition of UVB-induced acanthosis (epidermis thickness)” value ([2]; 0.2% (w/w) topical, pre-treatment schedule) was “no effect”. For the same molecule, the “Decrease of the epidermal thickness” value ([2]; 2% (w/w) topical) was −32%, the “Inhibition of UVB-induced acanthosis (epidermis thickness)” value ([2]; 2% (w/w) topical, pre-treatment schedule (1 h before UVB 120 mJ/cm^2, then twice 23 h apart)) was −23% and the “Reduction of the number of EdU positive cells” value (from here on “Reduction”) ([3]; 0.2% topical, post-treatment schedule) was 25%. The “Reduction” value ([3]; 2% topical, post-treatment schedule) was −64% and the “Reduction” value ([3]; 2% topical, pre-treatment schedule) was −59%.
